Measured values from ChEMBL document CHEMBL5380794, “Discovery of a Potent and Selective STAT5 PROTAC Degrader with Strong Antitumor Activity In Vivo in Acute Myeloid Leukemia” (J Med Chem, 2023).

Legend:
[1] = biological target: T1, Signal transducer and activator of transcription 5B (Homo sapiens, UniProt P51692); assay: Binding affinity to STAT5B (unknown origin) assessed as inhibition constant by FP assay
T1 sequence (P51692 whole entry): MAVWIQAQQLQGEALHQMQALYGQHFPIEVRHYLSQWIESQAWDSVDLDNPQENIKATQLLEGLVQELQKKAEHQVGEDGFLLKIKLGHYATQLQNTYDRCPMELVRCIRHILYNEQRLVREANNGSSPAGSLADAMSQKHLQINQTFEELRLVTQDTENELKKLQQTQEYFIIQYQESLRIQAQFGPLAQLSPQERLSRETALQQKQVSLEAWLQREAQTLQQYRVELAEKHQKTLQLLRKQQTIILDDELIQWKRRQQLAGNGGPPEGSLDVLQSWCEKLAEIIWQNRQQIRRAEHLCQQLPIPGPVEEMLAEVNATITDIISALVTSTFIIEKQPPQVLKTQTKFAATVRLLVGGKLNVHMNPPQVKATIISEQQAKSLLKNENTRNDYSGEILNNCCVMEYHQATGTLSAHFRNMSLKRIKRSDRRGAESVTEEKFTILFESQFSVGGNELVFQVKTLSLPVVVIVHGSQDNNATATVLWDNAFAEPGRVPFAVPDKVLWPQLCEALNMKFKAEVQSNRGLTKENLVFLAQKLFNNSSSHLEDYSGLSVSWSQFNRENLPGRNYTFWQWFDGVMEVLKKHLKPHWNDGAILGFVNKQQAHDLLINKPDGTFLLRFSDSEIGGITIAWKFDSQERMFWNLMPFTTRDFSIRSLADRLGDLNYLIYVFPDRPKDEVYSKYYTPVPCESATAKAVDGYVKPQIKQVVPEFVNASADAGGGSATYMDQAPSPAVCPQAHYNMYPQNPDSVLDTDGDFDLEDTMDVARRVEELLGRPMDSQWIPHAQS

[2] = biological target: T2, Signal transducer and activator of transcription 6 (Homo sapiens, UniProt P42226); assay: Binding affinity to STAT6 SH2 domain (unknown origin) assessed as inhibition constant by FP assay
T2 sequence (P42226 whole entry): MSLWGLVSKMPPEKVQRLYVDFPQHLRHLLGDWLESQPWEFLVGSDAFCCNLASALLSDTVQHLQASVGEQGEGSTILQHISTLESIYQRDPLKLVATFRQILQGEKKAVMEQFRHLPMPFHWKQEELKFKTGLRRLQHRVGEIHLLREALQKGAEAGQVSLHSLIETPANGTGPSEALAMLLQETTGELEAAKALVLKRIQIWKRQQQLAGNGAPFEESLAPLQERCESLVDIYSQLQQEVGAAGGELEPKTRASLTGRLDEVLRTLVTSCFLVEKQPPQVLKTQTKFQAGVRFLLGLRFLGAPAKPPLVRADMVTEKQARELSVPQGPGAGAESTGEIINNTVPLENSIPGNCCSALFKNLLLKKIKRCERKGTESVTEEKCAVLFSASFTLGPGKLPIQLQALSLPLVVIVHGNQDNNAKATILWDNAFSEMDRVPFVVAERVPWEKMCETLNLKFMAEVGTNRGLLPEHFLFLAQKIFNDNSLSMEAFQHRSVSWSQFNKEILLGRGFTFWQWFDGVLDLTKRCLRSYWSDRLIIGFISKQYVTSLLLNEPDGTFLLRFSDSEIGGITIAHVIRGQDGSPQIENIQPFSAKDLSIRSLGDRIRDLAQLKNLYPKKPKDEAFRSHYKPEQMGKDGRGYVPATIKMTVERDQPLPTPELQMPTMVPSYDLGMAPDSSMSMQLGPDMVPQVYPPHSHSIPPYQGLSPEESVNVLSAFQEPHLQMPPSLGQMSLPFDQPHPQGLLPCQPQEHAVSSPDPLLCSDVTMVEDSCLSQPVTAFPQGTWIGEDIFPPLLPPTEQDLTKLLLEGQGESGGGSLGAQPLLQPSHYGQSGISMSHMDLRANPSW

[3] = biological target: T3, Signal transducer and activator of transcription 5A (Homo sapiens, UniProt P42229); assay: Binding affinity to N-terminal 6his-tagged human STAT5A (136 to 705 residues) expressed in Escherichia coli BL21-DE3 rosetta cells assessed as inhibition constant by FP assay
T3 sequence (P42229 whole entry): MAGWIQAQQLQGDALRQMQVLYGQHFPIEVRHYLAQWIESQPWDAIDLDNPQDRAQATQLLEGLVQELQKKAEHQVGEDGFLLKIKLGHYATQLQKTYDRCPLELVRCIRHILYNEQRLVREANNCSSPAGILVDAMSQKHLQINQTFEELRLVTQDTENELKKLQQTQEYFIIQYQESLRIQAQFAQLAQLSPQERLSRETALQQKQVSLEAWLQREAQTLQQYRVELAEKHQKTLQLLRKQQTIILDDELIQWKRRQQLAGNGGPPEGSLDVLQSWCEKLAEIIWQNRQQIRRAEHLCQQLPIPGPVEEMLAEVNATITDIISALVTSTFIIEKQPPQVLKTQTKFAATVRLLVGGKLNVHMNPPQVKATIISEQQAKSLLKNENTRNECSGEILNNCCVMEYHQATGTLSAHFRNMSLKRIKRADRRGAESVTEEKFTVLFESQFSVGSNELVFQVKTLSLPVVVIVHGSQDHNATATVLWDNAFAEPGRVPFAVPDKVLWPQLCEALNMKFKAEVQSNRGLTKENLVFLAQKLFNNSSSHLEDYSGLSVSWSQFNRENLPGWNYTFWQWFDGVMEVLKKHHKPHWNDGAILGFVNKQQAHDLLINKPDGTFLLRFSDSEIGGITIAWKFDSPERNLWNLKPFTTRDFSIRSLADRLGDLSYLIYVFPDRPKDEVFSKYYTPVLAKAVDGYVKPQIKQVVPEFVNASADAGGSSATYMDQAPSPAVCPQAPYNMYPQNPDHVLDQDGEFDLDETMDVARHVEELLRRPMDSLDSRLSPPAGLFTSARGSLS

[4] = biological target: T3, Signal transducer and activator of transcription 5A; assay: Induction of STAT5 degradation in human SKNO-1 cells measured for 18 hrs by Western blot analysis; assay type: cell-based
[5] = biological target: T2, Signal transducer and activator of transcription 6; assay: Induction of STAT6 degradation in human SKNO-1 cells measured for 18 hrs by Western blot analysis; assay type: cell-based

Row | Compound | Ki [1] [µM] | DC50 [4] [µM] | other results
1 | CN(C)C(=O)CCN(C(=O)[C@@H]1CCCN1C(=O)[C@@H](NC(=O)c1cc2cc(C(F)(F)P(=O)(O)O)ccc2s1)C(C)(C)C)c1ccc(Br)cc1 | 2.1 |  | 
2 | CN(C)C(=O)CCN(C(=O)[C@@H]1CCCN1C(=O)[C@@H](NC(=O)c1cc2cc(C(F)(F)P(=O)(O)O)ccc2s1)C(C)(C)C)c1ccc(-c2ccccc2)cc1 | 5.2 |  | Ki [2]: 2 µM; Ki [3]: 3.4 µM
3 | C/C(=C\C(=O)N[C@H](C(=O)N1CCC[C@H]1C(=O)N1CCCc2ccccc21)C(C)(C)C)c1ccc(C(F)(F)P(=O)(O)O)cc1 | > 10 |  | 
4 | CC(C)(C)[C@H](NC(=O)c1cc2cc(C(F)(F)P(=O)(O)O)ccc2s1)C(=O)N1CCC[C@H]1C(=O)N(CCC(=O)N1CCC(Nc2cccc3c2CN(C2CCC(=O)NC2=O)C3=O)CC1)c1ccc(Br)cc1 (some centres not stated) |  | > 5 | DC50 [5]: Not Active
5 | CC(C)(C)[C@H](NC(=O)c1cc2cc(C(F)(F)P(=O)(O)O)ccc2s1)C(=O)N1CCC[C@H]1C(=O)N(CCC(=O)N1CCC(C#Cc2cccc3c2CN(C2CCC(=O)NC2=O)C3=O)CC1)c1ccc(Br)cc1 (some centres not stated) |  | > 5 | DC50 [5]: Not Active
6 | CC(C)(C)[C@H](NC(=O)c1cc2cc(C(F)(F)P(=O)(O)O)ccc2s1)C(=O)N1CCC[C@H]1C(=O)Nc1ccccc1 | > 10 |  | 
7 | CN(C(=O)[C@@H]1CCCN1C(=O)[C@@H](NC(=O)c1cc2cc(C(F)(F)P(=O)(O)O)ccc2s1)C(C)(C)C)c1ccccc1 | 6.2 |  | 
8 | CN(C)C(=O)CCN(C(=O)[C@@H]1CCCN1C(=O)[C@@H](NC(=O)c1cc2cc(C(F)(F)P(=O)(O)O)ccc2s1)C(C)(C)C)c1ccccc1 | 6.8 |  | 
9 | CC(C)(C)[C@H](NC(=O)c1cc2cc(C(F)(F)P(=O)(O)O)ccc2s1)C(=O)N1CCC[C@H]1C(=O)N1CCCOCC1 | > 10 |  | 
10 | CC(C)(C)[C@H](NC(=O)c1cc2cc(C(F)(F)P(=O)(O)O)ccc2s1)C(=O)N1CCC[C@H]1C(=O)N(CCC(=O)N1CC(CC#Cc2cccc3c2CN(C2CCC(=O)NC2=O)C3=O)C1)c1ccc(Br)cc1 (some centres not stated) |  | > 5 | DC50 [5]: Not Active
11 | CN(C)C(=O)CCN(C(=O)[C@@H]1CCCN1C(=O)[C@@H](NC(=O)c1cc2cc(C(F)(F)P(=O)(O)O)ccc2s1)C(C)(C)C)c1ccc2occc2c1 | 2 |  | 
12 | CC(C)(C)[C@H](NC(=O)c1cc2cc(C(F)(F)P(=O)(O)O)ccc2s1)C(=O)N1CCC[C@H]1C(=O)N(CCC(=O)NCCCCC#Cc1cccc2c1CN(C1CCC(=O)NC1=O)C2=O)c1ccc(Br)cc1 (some centres not stated) |  | 0.5 | DC50 ([5]; read-out: DC50): > 5 µM
13 | CC(C)(C)[C@H](NC(=O)c1cc2cc(C(F)(F)P(=O)(O)O)ccc2s1)C(=O)N1CCC[C@H]1C(=O)N(CCC(=O)NCCCC#Cc1cccc2c1CN(C1CCC(=O)NC1=O)C2=O)c1ccc2scnc2c1 (some centres not stated) | 0.4 | 0.45 | Ki [3]: 1 µM
14 | CN(C)C(=O)CCN(C(=O)[C@@H]1CCCN1C(=O)[C@@H](NC(=O)c1cc2cc(C(F)(F)P(=O)(O)O)ccc2s1)C(C)(C)C)c1ccc(Cl)cc1 | 4.2 |  | 
15 | CC(C)(C)[C@H](NC(=O)c1cc2cc(C(F)(F)P(=O)(O)O)ccc2s1)C(=O)N1CCC[C@H]1C(=O)N(CCC(=O)NCCC#Cc1cccc2c1CN(C1CCC(=O)NC1=O)C2=O)c1ccc(Br)cc1 (some centres not stated) |  | > 5 | DC50 ([5]; read-out: DC50): > 5 µM
16 | CN(C)C(=O)CCN(C(=O)[C@@H]1CCCN1C(=O)[C@@H](NC(=O)c1cc2cc(C(F)(F)P(=O)(O)O)ccc2s1)C(C)(C)C)c1ccc2scnc2c1 | 1.3 |  | 
17 | CC(C)(C)[C@H](NC(=O)c1cc2cc(C(F)(F)P(=O)(O)O)ccc2s1)C(=O)N1CCC[C@H]1C(=O)N(CCC(=O)NCCCC#Cc1cccc2c1CN(C1CCC(=O)NC1=O)C2=O)c1ccc2sccc2c1 (some centres not stated) | 0.8 | 0.18 | Ki [3]: 1.2 µM
18 | CC(C)(C)[C@H](NC(=O)c1cc2cc(C(F)(F)P(=O)(O)O)ccc2s1)C(=O)N1CCC[C@H]1C(=O)N(CCC(=O)NCCCC#Cc1cccc2c1CN(C1CCC(=O)NC1=O)C2=O)c1ccc(C(F)(F)F)cc1 (some centres not stated) |  | 2 | 
19 | CC(C)(C)[C@H](NC(=O)c1cc2cc(C(F)(F)P(=O)(O)O)ccc2s1)C(=O)N1CCC[C@H]1C(=O)N(CCC(=O)NCCCC#Cc1cccc2c1CN(C1CCC(=O)NC1=O)C2=O)c1ccccc1 (some centres not stated) |  | > 5 | 
20 | CC(C)(C)[C@H](NC(=O)c1cc2cc(C(F)(F)P(=O)(O)O)ccc2s1)C(=O)N1CCC[C@H]1C(=O)N(CCC(=O)NCCCC#Cc1cccc2c1CN(C1CCC(=O)NC1=O)C2=O)c1cccc2sccc12 (some centres not stated) |  | > 5 | 
21 | CC(C)(C)c1ccc(N(CCC(=O)NCCCC#Cc2cccc3c2CN(C2CCC(=O)NC2=O)C3=O)C(=O)[C@@H]2CCCN2C(=O)[C@@H](NC(=O)c2cc3cc(C(F)(F)P(=O)(O)O)ccc3s2)C(C)(C)C)cc1 (some centres not stated) |  | > 5 | 
22 | CC(C)(C)[C@H](NC(=O)c1cc2cc(C(F)(F)P(=O)(O)O)ccc2s1)C(=O)N1CCC[C@H]1C(=O)N1CCCc2ccccc21 | 6.2 |  | 
23 | CC(C)(C)[C@H](NC(=O)c1cc2cc(C(F)(F)P(=O)(O)O)ccc2s1)C(=O)N1CCC[C@H]1C(=O)N(CCC(=O)NCCCCCCC#Cc1cccc2c1CN(C1CCC(=O)NC1=O)C2=O)c1ccc(Br)cc1 (some centres not stated) |  | 1.4 | DC50 ([5]; read-out: DC50): > 5 µM
24 | CC(C)(C)[C@H](NC(=O)c1cc2cc(C(F)(F)P(=O)(O)O)ccc2s1)C(=O)N1CCC[C@H]1C(=O)N(CCC(=O)NCCCCCC#Cc1cccc2c1CN(C1CCC(=O)NC1=O)C2=O)c1ccc(Br)cc1 (some centres not stated) |  | 1.1 | DC50 ([5]; read-out: DC50): > 5 µM
25 | CC(C)(C)[C@H](NC(=O)c1cc2cc(C(F)(F)P(=O)(O)O)ccc2s1)C(=O)N1CCC[C@H]1C(=O)N(CCC(=O)NCCCC#Cc1cccc2c1CN(C1CCC(=O)NC1=O)C2=O)c1ccc(-c2cccs2)cc1 (some centres not stated) |  | 0.21 | 
26 | CN(C)C(=O)CCN(C(=O)[C@@H]1CCCN1C(=O)[C@@H](NC(=O)c1cc2cc(C(F)(F)P(=O)(O)O)ccc2s1)C(C)(C)C)c1cccc(Br)c1 | 7 |  | 
27 | CC(C)(C)[C@H](NC(=O)c1cc2cc(C(F)(F)P(=O)(O)O)ccc2s1)C(=O)N1CCC[C@H]1C(=O)N(CCC(=O)N1CC(CCC#Cc2cccc3c2CN(C2CCC(=O)NC2=O)C3=O)C1)c1ccc(Br)cc1 (some centres not stated) |  | 4.2 | DC50 [5]: Not Active
28 | CC(C)(C)[C@H](NC(=O)c1cc2cc(C(F)(F)P(=O)(O)O)ccc2s1)C(=O)N1CCC[C@H]1C(=O)N1CCC2(CCC2)C1 | > 10 |  | 
